Where two headings read alike, the source gives them in different places.
How the values were obtained:
Experiment in all cases: KINOMEscan ScanTK
Format in all cases: binding
EPHA5 = biological target: T1, EPHA5 (Homo sapiens, UniProt P54756)
T1 construct: purchased Eurofins DiscoverX KINOMEscan (scanTK)

MET = biological target: T2, MET (Homo sapiens, UniProt P08581)
T2 construct: purchased Eurofins DiscoverX KINOMEscan (scanTK)

FGFR3(G697C) = biological target: T3, FGFR3(G697C) (Homo sapiens, UniProt P22607, G697C)
T3 construct: purchased Eurofins DiscoverX KINOMEscan (scanTK)

FGFR1 = biological target: T4, FGFR1 (Homo sapiens, UniProt P11362)
T4 construct: purchased Eurofins DiscoverX KINOMEscan (scanTK)

LYN = biological target: T5, LYN (Homo sapiens, UniProt P07948)
T5 construct: purchased Eurofins DiscoverX KINOMEscan (scanTK)

EPHB2 = biological target: T6, EPHB2 (Homo sapiens, UniProt P29323)
T6 construct: purchased Eurofins DiscoverX KINOMEscan (scanTK)
T6 sequence (P29323 19-1055): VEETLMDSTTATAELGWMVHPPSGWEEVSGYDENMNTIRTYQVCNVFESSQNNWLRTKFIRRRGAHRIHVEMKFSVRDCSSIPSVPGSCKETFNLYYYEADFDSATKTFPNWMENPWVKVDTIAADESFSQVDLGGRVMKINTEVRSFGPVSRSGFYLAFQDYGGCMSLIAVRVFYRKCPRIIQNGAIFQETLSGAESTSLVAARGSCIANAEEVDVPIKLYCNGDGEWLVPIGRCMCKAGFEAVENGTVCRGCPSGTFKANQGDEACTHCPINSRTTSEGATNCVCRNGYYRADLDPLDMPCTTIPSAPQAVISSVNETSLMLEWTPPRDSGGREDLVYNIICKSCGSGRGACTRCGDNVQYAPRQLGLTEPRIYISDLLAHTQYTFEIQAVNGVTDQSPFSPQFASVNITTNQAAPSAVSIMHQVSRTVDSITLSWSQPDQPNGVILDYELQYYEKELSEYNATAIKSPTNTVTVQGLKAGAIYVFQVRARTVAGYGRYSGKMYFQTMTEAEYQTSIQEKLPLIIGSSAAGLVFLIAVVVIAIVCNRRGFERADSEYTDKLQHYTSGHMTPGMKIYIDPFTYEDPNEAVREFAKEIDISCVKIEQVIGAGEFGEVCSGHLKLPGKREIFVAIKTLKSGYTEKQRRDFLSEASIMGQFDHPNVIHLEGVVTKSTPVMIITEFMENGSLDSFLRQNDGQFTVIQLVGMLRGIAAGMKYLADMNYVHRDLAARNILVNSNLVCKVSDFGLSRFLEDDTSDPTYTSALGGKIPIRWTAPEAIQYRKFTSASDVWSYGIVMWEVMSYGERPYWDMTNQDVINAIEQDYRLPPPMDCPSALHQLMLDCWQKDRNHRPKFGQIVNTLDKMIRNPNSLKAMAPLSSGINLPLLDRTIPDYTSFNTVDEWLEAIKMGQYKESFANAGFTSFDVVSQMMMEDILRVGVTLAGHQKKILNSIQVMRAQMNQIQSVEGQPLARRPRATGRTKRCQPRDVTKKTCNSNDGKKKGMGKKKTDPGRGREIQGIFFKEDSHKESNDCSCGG

FGFR2 = biological target: T7, FGFR2 (Homo sapiens, UniProt P21802)
T7 construct: purchased Eurofins DiscoverX KINOMEscan (scanTK)

EPHA8 = biological target: T8, EPHA8 (Homo sapiens, UniProt P29322)
T8 construct: purchased Eurofins DiscoverX KINOMEscan (scanTK)
T8 sequence (P29322 28-1005): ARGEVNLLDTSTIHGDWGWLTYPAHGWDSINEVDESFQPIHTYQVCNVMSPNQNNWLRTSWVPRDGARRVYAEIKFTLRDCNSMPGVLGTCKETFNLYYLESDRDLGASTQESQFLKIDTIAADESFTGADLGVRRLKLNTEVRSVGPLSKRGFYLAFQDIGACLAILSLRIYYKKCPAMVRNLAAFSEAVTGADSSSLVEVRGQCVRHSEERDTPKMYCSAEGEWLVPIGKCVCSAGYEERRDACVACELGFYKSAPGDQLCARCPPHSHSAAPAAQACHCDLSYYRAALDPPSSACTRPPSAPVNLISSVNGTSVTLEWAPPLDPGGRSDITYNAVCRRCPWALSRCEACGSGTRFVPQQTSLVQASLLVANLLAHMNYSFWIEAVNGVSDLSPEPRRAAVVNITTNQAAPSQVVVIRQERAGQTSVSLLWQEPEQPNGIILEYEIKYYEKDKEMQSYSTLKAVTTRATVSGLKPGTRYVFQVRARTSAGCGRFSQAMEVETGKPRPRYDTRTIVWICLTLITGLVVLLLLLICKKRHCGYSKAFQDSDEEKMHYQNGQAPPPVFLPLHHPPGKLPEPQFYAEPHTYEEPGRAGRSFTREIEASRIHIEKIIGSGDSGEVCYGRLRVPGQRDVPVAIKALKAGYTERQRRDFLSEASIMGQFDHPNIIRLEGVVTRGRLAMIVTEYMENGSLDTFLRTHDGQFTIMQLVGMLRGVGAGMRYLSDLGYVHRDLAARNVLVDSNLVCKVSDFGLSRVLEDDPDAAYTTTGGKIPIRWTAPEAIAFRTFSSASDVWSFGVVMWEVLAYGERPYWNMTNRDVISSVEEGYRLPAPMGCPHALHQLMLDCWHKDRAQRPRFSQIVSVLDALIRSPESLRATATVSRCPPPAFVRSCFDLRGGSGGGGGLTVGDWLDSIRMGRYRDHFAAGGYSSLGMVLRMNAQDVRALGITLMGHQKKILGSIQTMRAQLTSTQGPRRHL

[1] = biological target: T9, ABL1(M351T)-phosphorylated (Homo sapiens, UniProt P00519, M351T)
T9 construct: purchased Eurofins DiscoverX KINOMEscan (scanTK)

T2 sequence (P08581 25-1390): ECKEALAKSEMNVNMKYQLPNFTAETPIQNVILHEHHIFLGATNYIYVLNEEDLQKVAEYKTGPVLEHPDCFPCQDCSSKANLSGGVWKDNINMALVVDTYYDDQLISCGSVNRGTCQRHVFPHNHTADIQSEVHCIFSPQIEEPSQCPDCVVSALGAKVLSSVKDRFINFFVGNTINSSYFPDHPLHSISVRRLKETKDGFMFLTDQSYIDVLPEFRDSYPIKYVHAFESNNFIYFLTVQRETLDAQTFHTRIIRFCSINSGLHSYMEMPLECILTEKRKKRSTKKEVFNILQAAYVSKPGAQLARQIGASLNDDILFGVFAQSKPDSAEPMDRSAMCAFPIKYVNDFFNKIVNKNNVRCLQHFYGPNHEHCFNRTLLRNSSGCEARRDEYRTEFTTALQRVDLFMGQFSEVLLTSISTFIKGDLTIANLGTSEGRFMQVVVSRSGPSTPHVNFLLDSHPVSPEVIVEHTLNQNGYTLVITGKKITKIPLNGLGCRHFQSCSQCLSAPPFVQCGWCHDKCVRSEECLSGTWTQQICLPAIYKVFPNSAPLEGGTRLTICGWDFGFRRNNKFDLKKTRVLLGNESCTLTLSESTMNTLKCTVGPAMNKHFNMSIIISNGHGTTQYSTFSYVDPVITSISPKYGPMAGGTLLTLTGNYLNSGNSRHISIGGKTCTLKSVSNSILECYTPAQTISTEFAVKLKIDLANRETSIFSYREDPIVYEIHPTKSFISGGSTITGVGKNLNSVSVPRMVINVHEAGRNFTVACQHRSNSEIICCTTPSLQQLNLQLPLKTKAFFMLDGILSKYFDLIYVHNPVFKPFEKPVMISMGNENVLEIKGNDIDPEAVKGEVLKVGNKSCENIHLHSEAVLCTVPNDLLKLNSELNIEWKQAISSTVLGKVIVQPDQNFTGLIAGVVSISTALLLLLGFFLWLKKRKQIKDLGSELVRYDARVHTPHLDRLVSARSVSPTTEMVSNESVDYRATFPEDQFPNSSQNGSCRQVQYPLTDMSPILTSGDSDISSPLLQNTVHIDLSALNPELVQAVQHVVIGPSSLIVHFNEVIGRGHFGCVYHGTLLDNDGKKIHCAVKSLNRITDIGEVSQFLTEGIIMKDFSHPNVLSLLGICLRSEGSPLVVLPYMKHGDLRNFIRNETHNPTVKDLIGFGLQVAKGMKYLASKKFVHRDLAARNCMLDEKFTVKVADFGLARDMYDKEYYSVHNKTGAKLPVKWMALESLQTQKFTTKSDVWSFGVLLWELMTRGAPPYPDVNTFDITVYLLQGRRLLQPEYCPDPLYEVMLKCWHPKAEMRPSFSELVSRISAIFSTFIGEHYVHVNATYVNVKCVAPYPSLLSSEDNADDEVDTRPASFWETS
T5 sequence (P07948 whole entry): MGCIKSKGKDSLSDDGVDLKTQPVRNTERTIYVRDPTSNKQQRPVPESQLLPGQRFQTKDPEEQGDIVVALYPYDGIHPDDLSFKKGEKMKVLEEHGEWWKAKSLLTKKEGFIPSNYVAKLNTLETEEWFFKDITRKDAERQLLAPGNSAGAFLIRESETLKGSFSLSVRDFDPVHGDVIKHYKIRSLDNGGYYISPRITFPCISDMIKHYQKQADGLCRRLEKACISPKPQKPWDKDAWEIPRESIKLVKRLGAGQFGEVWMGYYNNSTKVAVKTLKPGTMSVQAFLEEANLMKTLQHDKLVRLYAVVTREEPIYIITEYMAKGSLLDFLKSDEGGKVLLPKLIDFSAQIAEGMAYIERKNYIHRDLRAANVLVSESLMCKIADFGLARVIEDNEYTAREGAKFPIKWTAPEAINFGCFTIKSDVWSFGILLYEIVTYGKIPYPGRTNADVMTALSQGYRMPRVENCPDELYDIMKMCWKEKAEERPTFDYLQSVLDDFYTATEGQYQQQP
T3 sequence (P22607 23-806 G697C): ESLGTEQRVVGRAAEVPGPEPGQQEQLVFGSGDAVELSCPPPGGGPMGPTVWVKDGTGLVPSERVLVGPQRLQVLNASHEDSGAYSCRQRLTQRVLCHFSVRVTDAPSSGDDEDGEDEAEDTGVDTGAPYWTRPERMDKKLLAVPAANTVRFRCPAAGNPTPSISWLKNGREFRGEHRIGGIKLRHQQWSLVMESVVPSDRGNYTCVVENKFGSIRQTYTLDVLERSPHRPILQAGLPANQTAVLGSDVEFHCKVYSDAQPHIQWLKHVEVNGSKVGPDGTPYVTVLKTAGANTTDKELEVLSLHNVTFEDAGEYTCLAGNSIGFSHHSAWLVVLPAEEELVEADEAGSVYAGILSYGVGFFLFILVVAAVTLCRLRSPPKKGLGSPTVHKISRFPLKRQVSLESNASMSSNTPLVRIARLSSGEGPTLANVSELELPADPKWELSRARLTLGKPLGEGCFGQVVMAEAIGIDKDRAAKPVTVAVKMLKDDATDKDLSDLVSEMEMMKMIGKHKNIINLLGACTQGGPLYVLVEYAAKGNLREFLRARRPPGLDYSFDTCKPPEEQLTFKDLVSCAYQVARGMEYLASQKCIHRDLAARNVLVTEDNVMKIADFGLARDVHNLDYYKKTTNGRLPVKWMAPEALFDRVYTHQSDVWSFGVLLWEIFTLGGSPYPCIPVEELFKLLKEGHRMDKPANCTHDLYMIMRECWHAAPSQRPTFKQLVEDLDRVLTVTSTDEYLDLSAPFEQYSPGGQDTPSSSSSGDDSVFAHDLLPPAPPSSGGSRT
T1 sequence (P54756 25-1037): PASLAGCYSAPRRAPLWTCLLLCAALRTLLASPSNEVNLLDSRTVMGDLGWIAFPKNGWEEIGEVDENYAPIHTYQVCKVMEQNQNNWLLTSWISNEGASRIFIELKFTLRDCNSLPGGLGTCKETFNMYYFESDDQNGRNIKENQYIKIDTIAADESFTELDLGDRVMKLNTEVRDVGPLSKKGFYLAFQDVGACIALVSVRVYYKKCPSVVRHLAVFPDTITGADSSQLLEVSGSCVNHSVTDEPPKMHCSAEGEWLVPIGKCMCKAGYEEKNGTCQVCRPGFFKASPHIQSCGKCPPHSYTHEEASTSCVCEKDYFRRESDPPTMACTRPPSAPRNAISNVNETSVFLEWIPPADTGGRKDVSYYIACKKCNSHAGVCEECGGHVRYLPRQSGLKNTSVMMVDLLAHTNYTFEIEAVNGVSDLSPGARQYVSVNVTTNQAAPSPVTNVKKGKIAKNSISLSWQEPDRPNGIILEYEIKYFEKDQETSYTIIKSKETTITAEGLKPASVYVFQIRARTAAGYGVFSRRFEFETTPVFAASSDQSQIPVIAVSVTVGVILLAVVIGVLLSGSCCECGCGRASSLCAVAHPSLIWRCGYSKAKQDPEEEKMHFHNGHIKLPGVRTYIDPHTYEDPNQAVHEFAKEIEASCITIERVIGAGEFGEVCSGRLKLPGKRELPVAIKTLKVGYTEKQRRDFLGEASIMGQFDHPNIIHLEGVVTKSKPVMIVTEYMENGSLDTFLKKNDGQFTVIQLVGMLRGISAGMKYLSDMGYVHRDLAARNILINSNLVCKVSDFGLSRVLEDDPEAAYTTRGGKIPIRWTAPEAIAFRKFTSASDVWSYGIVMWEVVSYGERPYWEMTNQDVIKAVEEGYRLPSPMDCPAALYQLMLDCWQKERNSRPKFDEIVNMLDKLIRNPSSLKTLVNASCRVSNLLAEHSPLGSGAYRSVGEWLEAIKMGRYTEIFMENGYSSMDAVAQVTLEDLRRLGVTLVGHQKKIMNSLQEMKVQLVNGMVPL
T4 sequence (P11362 22-822): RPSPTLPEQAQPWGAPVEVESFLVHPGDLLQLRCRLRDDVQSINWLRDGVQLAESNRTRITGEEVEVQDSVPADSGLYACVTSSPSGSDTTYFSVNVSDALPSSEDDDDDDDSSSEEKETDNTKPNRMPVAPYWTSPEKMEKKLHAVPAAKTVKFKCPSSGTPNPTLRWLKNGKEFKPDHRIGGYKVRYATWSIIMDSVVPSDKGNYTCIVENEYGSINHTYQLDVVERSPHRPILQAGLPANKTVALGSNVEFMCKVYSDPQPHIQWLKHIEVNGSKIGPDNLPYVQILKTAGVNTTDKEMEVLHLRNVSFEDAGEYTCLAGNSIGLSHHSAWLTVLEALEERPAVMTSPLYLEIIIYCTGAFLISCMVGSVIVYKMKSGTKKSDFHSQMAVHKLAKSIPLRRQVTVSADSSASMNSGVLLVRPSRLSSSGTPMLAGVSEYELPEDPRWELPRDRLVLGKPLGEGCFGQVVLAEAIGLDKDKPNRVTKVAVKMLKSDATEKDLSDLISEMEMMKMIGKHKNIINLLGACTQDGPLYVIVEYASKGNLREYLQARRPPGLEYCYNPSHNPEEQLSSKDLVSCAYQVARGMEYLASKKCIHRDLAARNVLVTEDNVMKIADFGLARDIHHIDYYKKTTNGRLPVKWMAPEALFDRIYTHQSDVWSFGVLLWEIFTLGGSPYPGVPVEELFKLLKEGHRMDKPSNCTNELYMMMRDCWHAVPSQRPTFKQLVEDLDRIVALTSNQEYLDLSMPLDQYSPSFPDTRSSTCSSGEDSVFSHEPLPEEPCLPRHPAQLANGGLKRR

SMILES | remaining binding at 1 µM (EPHA5; @1000nM, read-out: %Control) [%] | remaining binding at 1 µM (EPHA5; read-out: %Control @1000nM) [%] | remaining binding at 1 µM (MET; @1000nM, read-out: %Control) [%] | remaining binding at 1 µM (MET; read-out: %Control @1000nM) [%] | remaining binding at 1 µM (FGFR3(G697C); @1000nM, read-out: %Control) [%] | remaining binding at 1 µM (FGFR3(G697C); read-out: %Control @1000nM) [%] | remaining binding at 1 µM (FGFR1; @1000nM, read-out: %Control) [%] | remaining binding at 1 µM (FGFR1; read-out: %Control @1000nM) [%] | remaining binding at 1 µM (LYN; @1000nM, read-out: %Control) [%] | remaining binding at 1 µM (LYN; read-out: %Control @1000nM) [%] | remaining binding at 1 µM (EPHB2; @1000nM, read-out: %Control) [%] | remaining binding at 1 µM (EPHB2; read-out: %Control @1000nM) [%] | remaining binding at 1 µM (FGFR2; @1000nM, read-out: %Control) [%] | remaining binding at 1 µM (FGFR2; read-out: %Control @1000nM) [%] | remaining binding at 1 µM (EPHA8; @1000nM, read-out: %Control) [%] | remaining binding at 1 µM (EPHA8; read-out: %Control @1000nM) [%] | difference in %Control from compound Ib at 1 µM (EPHA5; @1000nM) [%] | difference in %Control versus compound Ib at 1 µM (FGFR3(G697C); @1000nM) [%] | difference in %Control from compound Ib at 1 µM ([1]; @1000nM) [%] | remaining binding at 1 µM ([1]; @1000nM, read-out: %Control) [%] | further results
C=CC(=O)N1CCC[C@@H](n2nc(-c3ccc(Oc4ccccc4)cc3)c3c(N)ncnc32)C1 [Compound 1g, Ibrutinib, reference compound] | 96 | 96 | 100 | 100 | 40 | 40 | 33 | 33 | 16 | 16 | 100 | 100 | 39 | 39 | 69 | 69 |  |  |  |  | 
Cc1cnc(S(C)(=O)=O)nc1N1CCCC(n2nc(-c3ccc(Oc4ccccc4)cc3)c3c(N)ncnc32)C1 (centres unmarked) [Compound 8a, 1-(1-(5-Methyl-2-(methylsulfonyl)pyrimidin-4-yl)piperidin-3-yl)-3-(4-phenoxyphenyl)-1H-pyrazolo[3,4-d]pyrimidin-4-amine] | 95 | 95 | 100 | 100 | 97 | 97 | 77 | 77 | 21 | 21 | 84 | 84 | 85 | 85 | 82 | 82 | -1 | 57 | 0 | 65 | remaining binding at 1 µM ([1]; read-out: %Control @1000nM): 65%; difference in %Control from compound Ib at 1 µM (FGFR1; @1000nM): 44%; %Control difference from compound Ib at 1 µM (EPHB2; @1000nM): -16%; difference in %Control vs compound Ib at 1 µM (FGFR2; @1000nM): 46%; difference in %Control versus compound Ib at 1 µM (EPHA8; @1000nM): 13%
COC(=O)c1cnc(S(C)(=O)=O)nc1N1CCCC(n2nc(-c3ccc(Oc4ccccc4)cc3)c3c(N)ncnc32)C1 (centres unmarked) [Compound 8b, Methyl 4-(3-(4-Amino-3-(4-phenoxyphenyl)-1H-pyrazolo[3,4-d]pyrimidin-1-yl)piperidin-1-yl)-2-(methylsulfonyl)pyrimidine-5-carboxylate] | 100 | 100 | 100 | 100 | 84 | 84 | 49 | 49 | 49 | 49 | 91 | 91 | 86 | 86 | 77 | 77 | 4 | 44 | 1 | 66 | remaining binding at 1 µM ([1]; read-out: %Control @1000nM): 66%; difference in %Control from compound Ib at 1 µM (FGFR1; @1000nM): 16%; %Control difference from compound Ib at 1 µM (EPHB2; @1000nM): -9%; difference in %Control vs compound Ib at 1 µM (FGFR2; @1000nM): 47%; difference in %Control versus compound Ib at 1 µM (EPHA8; @1000nM): 8%
CCOC(=O)c1cnc(S(C)(=O)=O)nc1N1CCC[C@@H](n2nc(-c3ccc(Oc4ccccc4)cc3)c3c(N)ncnc32)C1 [Compound 8c, Ethyl (R)-4-(3-(4-Amino-3-(4-phenoxyphenyl)-1H-pyrazolo[3,4-d]pyrimidin-1-yl)piperidin-1-yl)-2-(methylsulfonyl)pyrimidine-5-carboxylate] | 100 | 100 | 100 | 100 | 90 | 90 | 86 | 86 | 72 | 72 | 98 | 98 | 80 | 80 | 88 | 88 | 4 | 50 | 12 | 77 | remaining binding at 1 µM ([1]; read-out: %Control @1000nM): 77%; difference in %Control from compound Ib at 1 µM (FGFR1; @1000nM): 53%; %Control difference from compound Ib at 1 µM (EPHB2; @1000nM): -2%; difference in %Control vs compound Ib at 1 µM (FGFR2; @1000nM): 41%; difference in %Control versus compound Ib at 1 µM (EPHA8; @1000nM): 19%
CNC(=O)c1cnc(S(C)(=O)=O)nc1N1CCCC(n2nc(-c3ccc(Oc4ccccc4)cc3)c3c(N)ncnc32)C1 (centres unmarked) [Compound 8d, 4-(3-(4-Amino-3-(4-phenoxyphenyl)-1H-pyrazolo[3,4-d]pyrimidin-1-yl)piperidin-1-yl)-N-methyl-2-(methylsulfonyl)pyrimidine-5-carboxamide] | 100 | 100 | 100 | 100 | 87 | 87 | 78 | 78 | 43 | 43 | 99 | 99 | 74 | 74 | 93 | 93 | 4 | 47 | 9 | 74 | remaining binding at 1 µM ([1]; read-out: %Control @1000nM): 74%; difference in %Control from compound Ib at 1 µM (FGFR1; @1000nM): 45%; %Control difference from compound Ib at 1 µM (EPHB2; @1000nM): -1%; difference in %Control vs compound Ib at 1 µM (FGFR2; @1000nM): 35%; difference in %Control versus compound Ib at 1 µM (EPHA8; @1000nM): 24%

Reference: paper PMC11345841, “Exploring 2-Sulfonylpyrimidine Warheads as Acrylamide Surrogates for Targeted Covalent Inhibition: A BTK Story” (Journal of Medicinal Chemistry, 2024)
